The assay deals with BDF1 mice, Adenocarcinoma 755 s.c., tumor weight T/C. The assay can be described thus: NCI In Vivo Anticancer Drug Screen. Data for tumor model Adenocarcinoma 755 (subcutaneous) in B6D2F1 (BDF1) mice. The settings on record: endpoint: mean tumor weight, higher = larger tumour. In outline: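 In vivo antitumor screen on a transplantable tumor line. Result equals the measure in compound-treated animals divided by the same measure in vehicle controls.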

The mark [1] stands for this setting: dose: 100.0 mg/kg/injection, schedule: Q01DX011 (ip), vehicle: carboxymethylcellulose (CMC).
Where [2] appears, read: dose: 25.0 mg/kg/injection, schedule: Q01DX011 (ip), vehicle: carboxymethylcellulose (CMC).
[3] abbreviates: dose: 30.0 mg/kg/injection, schedule: Q01DX011 (ip), vehicle: carboxymethylcellulose (CMC).
Where [4] appears, read: dose: 60.0 mg/kg/injection, schedule: Q01DX011 (ip), vehicle: carboxymethylcellulose (CMC).
[5] abbreviates: dose: 125.0 mg/kg/injection, schedule: Q01DX011 (ip), vehicle: carboxymethylcellulose (CMC).
[6] abbreviates: dose: 250.0 mg/kg/injection, schedule: Q01DX011 (ip), vehicle: carboxymethylcellulose (CMC).

Several values for one entry are separate records, joined by “and”; a condition that tells them apart may be missing. Identical values can stand only once.

These results are taken from PubChem BioAssay AID180 (DTP/NCI, 2004).

For orientation: T/C means the result in the treated group divided by that in the control group, in per cent. Turning to `Cc1cc(N=Nc2ccc(-c3ccc(N=Nc4ccc(O)c(C(=O)O)c4)cc3)cc2)c(N)c(N=Nc2ccc(C(=O)Nc3ccc4cc(S(=O)(=O)O)ccc4c3)cc2)c1N`, the T/C (dose: 45.0 mg/kg/injection, schedule: Q01DX011 (ip), vehicle: carboxymethylcellulose (CMC)) is 158 % of control; the T/C (dose: 65.0 mg/kg/injection, schedule: Q01DX011 (ip), vehicle: carboxymethylcellulose (CMC)) was 119 % of control; the T/C under setting [1] was 69 % of control; the T/C (dose: 150.0 mg/kg/injection, schedule: Q01DX011 (ip), vehicle: carboxymethylcellulose (CMC)) was 72 % of control.
For the molecule `C=CCC1(CCC)C(=O)NC(=O)NC1=O`, the T/C reads like this: (dose: 17.5 mg/kg/injection, schedule: Q01DX011 (ip), vehicle: methylcellulose (MC)) 79 % of control and 86 % of control; (dose: 70.0 mg/kg/injection, schedule: Q01DX011 (ip), vehicle: methylcellulose (MC)) 23 % of control and 41 % of control; (dose: 140.0 mg/kg/injection, schedule: Q01DX011 (ip), vehicle: methylcellulose (MC)) 42 % of control.
As for `C#CCn1cnc2c(Cl)ncnc21`, the T/C reads like this: (dose: 5.0 mg/kg/injection, schedule: Q01DX011 (ip), vehicle: carboxymethylcellulose (CMC)) 61 % of control; (dose: 15.0 mg/kg/injection, schedule: Q01DX011 (ip), vehicle: carboxymethylcellulose (CMC)) 48 % of control; under setting [2], 13 % of control; (dose: 35.0 mg/kg/injection, schedule: Q01DX011 (ip), vehicle: carboxymethylcellulose (CMC)) 14 % of control; (dose: 50.0 mg/kg/injection, schedule: Q01DX011 (ip), vehicle: carboxymethylcellulose (CMC)) 8 % of control; under setting [1], 3 % of control.
On to `Cn1c(N)nc2n[nH]nc2c1=O`, for which the T/C under setting [3] was 105 % of control; the T/C under setting [4] was 119 % of control; the T/C under setting [1] is 98 % of control; the T/C (dose: 120.0 mg/kg/injection, schedule: Q01DX011 (ip), vehicle: carboxymethylcellulose (CMC)) was 46 % of control; the T/C (dose: 240.0 mg/kg/injection, schedule: Q01DX011 (ip), vehicle: carboxymethylcellulose (CMC)) is 97 % of control.
As to `CNc1ncnc2c1ncn2C1CCCO1` (stereo unspecified), the T/C reads like this: (dose: 50.0 mg/kg/injection, schedule: Q01DX011 (ip), vehicle: saline) 119 % of control; (dose: 100.0 mg/kg/injection, schedule: Q01DX011 (ip), vehicle: saline) 86 % of control; (dose: 200.0 mg/kg/injection, schedule: Q01DX011 (ip), vehicle: saline) 51 % of control.
`CCOC1CCCC(n2cnc3c(Cl)ncnc32)O1` (stereo unspecified): the T/C was 64 % of control (dose: 7.81 mg/kg/injection, schedule: Q01DX011 (ip), vehicle: methylcellulose (MC)); 65 % of control (dose: 15.63 mg/kg/injection, schedule: Q01DX011 (ip), vehicle: methylcellulose (MC)); 43 % of control (dose: 31.25 mg/kg/injection, schedule: Q01DX011 (ip), vehicle: methylcellulose (MC)); 3 % of control and 17 % of control (dose: 62.5 mg/kg/injection, schedule: Q01DX011 (ip), vehicle: methylcellulose (MC)).
For `CCNc1ncnc2c1cnn2C1CCCO1` (stereo unspecified), the T/C reads like this: (dose: 3.1 mg/kg/injection, schedule: Q01DX011 (ip), vehicle: methylcellulose (MC)) 61 % of control; (dose: 6.2 mg/kg/injection, schedule: Q01DX011 (ip), vehicle: methylcellulose (MC)) 39 % of control; (dose: 12.5 mg/kg/injection, schedule: Q01DX011 (ip), vehicle: methylcellulose (MC)) 3 % of control.
Take `CC(=O)[C@H]1CC[C@H]2[C@@H]3C[C@H](F)C4=CC(=O)CC[C@]4(C)[C@H]3C(=O)C[C@]12C`: the T/C (dose: 3.5 mg/kg/injection, schedule: Q01DX011 (sc), vehicle: steriod suspending solution) was 82 % of control; the T/C (dose: 7.0 mg/kg/injection, schedule: Q01DX011 (sc), vehicle: steriod suspending solution) was 66 % of control; the T/C (dose: 55.0 mg/kg/injection, schedule: Q01DX011 (sc), vehicle: steriod suspending solution) was 15 % of control and 20 % of control; the T/C (dose: 110.0 mg/kg/injection, schedule: Q01DX011 (sc), vehicle: steriod suspending solution) is 13 % of control and 14 % of control; the T/C (dose: 220.0 mg/kg/injection, schedule: Q01DX011 (sc), vehicle: steriod suspending solution) was 3 % of control and 8 % of control.
`Nc1nc(=S)c2ncn(C3OC(COC(=O)c4ccc([N+](=O)[O-])cc4)C(OC(=O)c4ccc([N+](=O)[O-])cc4)C3OC(=O)c3ccc([N+](=O)[O-])cc3)c2[nH]1` (stereo unspecified): the T/C is 34 % of control (dose: 12.5 mg/kg/injection, schedule: Q01DX011 (ip), vehicle: carboxymethylcellulose (CMC)) and 20 % of control under setting [2].
Turning to `NS(=O)(=O)c1nc2nc[nH]c2c(=O)[nH]1`, the T/C is 66 % of control under setting [2]; 78 % of control (dose: 75.0 mg/kg/injection, schedule: Q01DX011 (ip), vehicle: carboxymethylcellulose (CMC)); 61 % of control (dose: 225.0 mg/kg/injection, schedule: Q01DX011 (ip), vehicle: carboxymethylcellulose (CMC)).
With `CC1NC(=O)NC1CCCCCC(=O)O` (stereo unspecified), the T/C is 122 % of control (dose: 89.06 mg/kg/injection, schedule: Q01DX011 (ip), vehicle: carboxymethylcellulose (CMC)); 75 % of control under setting [5]; 83 % of control (dose: 178.13 mg/kg/injection, schedule: Q01DX011 (ip), vehicle: carboxymethylcellulose (CMC)); 49 % of control under setting [6]; 90 % of control (dose: 356.25 mg/kg/injection, schedule: Q01DX011 (ip), vehicle: carboxymethylcellulose (CMC)); 68 % of control (dose: 500.0 mg/kg/injection, schedule: Q01DX011 (ip), vehicle: carboxymethylcellulose (CMC)). Besides, the T/C is 47 % of control (dose: 712.5 mg/kg/injection, schedule: Q01DX011 (ip), vehicle: carboxymethylcellulose (CMC)) and 69 % of control (dose: 1000.0 mg/kg/injection, schedule: Q01DX011 (ip), vehicle: carboxymethylcellulose (CMC)).
As to `ClCCN(CCCl)c1ccc(/C=C\c2ccnc3ccccc23)cc1`, the T/C under setting [3] is 65 % of control and 75 % of control; the T/C (dose: 115.0 mg/kg/injection, schedule: Q01DX011 (ip), vehicle: carboxymethylcellulose (CMC)) was 47 % of control and 69 % of control; the T/C (dose: 230.0 mg/kg/injection, schedule: Q01DX011 (ip), vehicle: carboxymethylcellulose (CMC)) was 71 % of control.
Regarding `O=S(=O)(OCCCl)OCCCl`, the T/C is, setting by setting: (dose: 12.5 mg/kg/injection, schedule: Q01DX011 (ip), vehicle: olive oil, sesame oil, peanut oil) 109 % of control; (dose: 25.0 mg/kg/injection, schedule: Q01DX011 (ip), vehicle: olive oil, sesame oil, peanut oil) 86 % of control.
Consider `OCC1OC(n2cnc3c(Cl)ncnc32)C(O)C1O` (stereo unspecified), for which the T/C was 153 % of control (dose: 62.5 mg/kg/injection, schedule: Q01DX011 (ip), vehicle: carboxymethylcellulose (CMC)); 72 % of control (dose: 100.0 mg/kg/injection, schedule: Q01DX011 (ip), vehicle: methylcellulose (MC)); 63 % of control under setting [5]; 78 % of control (dose: 200.0 mg/kg/injection, schedule: Q01DX011 (ip), vehicle: methylcellulose (MC)); 55 % of control under setting [6]; 90 % of control (dose: 300.0 mg/kg/injection, schedule: Q01DX011 (ip), vehicle: methylcellulose (MC)). The T/C is, setting by setting: (dose: 400.0 mg/kg/injection, schedule: Q01DX011 (ip), vehicle: methylcellulose (MC)) 63 % of control; (dose: 500.0 mg/kg/injection, schedule: Q01DX011 (ip), vehicle: methylcellulose (MC)) 11 % of control; (dose: 750.0 mg/kg/injection, schedule: Q01DX011 (ip), vehicle: methylcellulose (MC)) 4 % of control; (dose: 1000.0 mg/kg/injection, schedule: Q01DX011 (ip), vehicle: methylcellulose (MC)) 15 % of control.
`COc1ccc2c3c([nH]c2c1)[C@H]1C[C@H]2[C@H](C[C@@H](O)[C@H](OC)[C@H]2CO)CN1CC3`: the T/C is, setting by setting: (dose: 0.5 mg/kg/injection, schedule: Q01DX011 (ip), vehicle: saline) 91 % of control; (dose: 1.0 mg/kg/injection, schedule: Q01DX011 (ip), vehicle: saline) 95 % of control; (dose: 2.0 mg/kg/injection, schedule: Q01DX011 (ip), vehicle: saline) 92 % of control.
Consider `Clc1ncc2[nH]c(Cl)nc2n1`, for which the T/C under setting [3] was 96 % of control and the T/C under setting [4] is 112 % of control.
Take `CSc1ncc(Br)c(Nc2ccccc2C)n1`: the T/C was 94 % of control (dose: 15.0 mg/kg/injection, schedule: Q01DX011 (ip), vehicle: methylcellulose (MC)); 87 % of control (dose: 31.0 mg/kg/injection, schedule: Q01DX011 (ip), vehicle: methylcellulose (MC)); 110 % of control (dose: 62.0 mg/kg/injection, schedule: Q01DX011 (ip), vehicle: methylcellulose (MC)); 117 % of control (dose: 125.0 mg/kg/injection, schedule: Q01DX011 (ip), vehicle: methylcellulose (MC)); 107 % of control (dose: 250.0 mg/kg/injection, schedule: Q01DX011 (ip), vehicle: methylcellulose (MC)).
